Patent publication US20020018768A1, “Control of gene expression” (YISSUM RESEARCH DEVELOPMENT COMPANY OF THE HEBREW …, priority 1999, published 2002)

Tested on: CFTR transcripts carrying the 3849+10 kb C→T mutation in 091398K cells
Experiment: Splicing of native CFTR transcripts in 091398K nasal polyp epithelial cell line after transient transfection with splicing factors (DAC-30)
Type: cell-based
Conditions: transfection efficiency ~60%, untreated 21%
Source text: A polyp sample from a CF patient, compound heterozygous for the splicing mutation 3849+10 kb C→T and the W 1282X mutations was obtained. This patient suffered from nasal polyps and underwent nasal polypectomy. An epithelial cell line (091398K) was established from the polyp sample in collaboration with Dr. J. Yankaskas from the University of North Carolina. […] Thus a system in which the effect of splicing factors or) a native CFTR gene could be studied, was established.
Transient transfections of 091398 k cells with cellular factors were performed, using DAC-30. […] The viral factor E4-oRF3 slightly promoted exon inclusion and led to an increase in, the level of aberrantly spliced transcripts (21% to 28%). Thus, the mean effect could have reached ˜35%.

## ASF/SF2: cellular SR protein splicing factor, overexpressed by transient transfection
  level of aberrantly spliced CFTR transcripts after overexpression: 11%
